This is an account of results in patent publication US8080529B2, “Macrolides with anti-inflammatory activity” (Glaxo Group Limited, priority 2005, dated 2011).

Data set [1] has as its system TNF-α. The data set is described as follows: Lipopolysaccharide induced TNF-α production in Balb/cJ mice. It is filed as in vivo. Particulars: Mus musculus, ip, 1.5 h; 10 mg/kg intraperitoneally, 30 min before LPS; 90 min after LPS; read-out: % inhibition of TNF-α production (plasma). How it is done:
Male Balb/cJ mice (Iffa Credo, France) weighing 25-33 g were randomly grouped (n=7 in test group, 7 in positive control group, 4 in negative control group). Test compounds, as well as vehicle [0.125% carboxymethyl-cellulose (Sigma, USA)], were administered to the mice intraperitoneally. Test compounds were administered at a dose of 10 mg/kg of body weight, in a volume of 10 mL/kg of body weight. Thirty minutes later, a sterile solution of lipopolysaccharide (LPS) (Sigma, USA) in saline was intraperitoneally administered at a concentration and volume of 25 μg/0.2 mL/mouse to each animal, except those in negative control. Ninety minutes following administration, all animals were sacrificed by puncturing a. carotis communis. The plasma concentration of TNF-α was determined by sandwich ELISA, using capture and detection antibodies (R&D, USA) according to manufacturer's recommendations. Results are presented in the following table as percent of inhibition of TNF-α production in comparison to the positive control (stimulated, but untreated animals).

The next data set deals with Hep G2. Kind of data set: Cytotoxicity assay (MTT), Hep G2 cell line. It is filed as cell-based. Particulars: 24 h. In short, it runs like this:
(§1)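 Viability was read as MTT-formazan absorbance at 490 nm after 0.5-2 h with reagent. This followed 24 h compound exposure (50 μM, 12.5 μM) at 37° C in RPM medium. Result expressed as OD490 treated over untreated cells ×100.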

In data set [2] the test system is human peripheral blood mononuclear cells (PBMC). The data set is described as follows: Effects on human T-cell proliferation in vitro (3H-thymidine incorporation). The note with it: Homo sapiens, PBMC, read-out: Percentage of inhibition of proliferation of stimulated PBMC. It counts as cell-based. How it is done: The influence of the various test compounds at two different concentrations (50 μM and 10 μM) on cell proliferation of human peripheral blood mononuclear cells (PBMC) was assessed. […] The cells were pulsed with 1 μCi of ^3H-thymidine (Amersham, USA) per well during the last 18 h of the culture, and were harvested on the 96-well filter (Packard Bioscience, USA) using a multiple cell harvester (Packard, USA). The incorporation of ^3H-thymidine in activated cells were measured using TopCount NXT (Packard, USA). […] The positive control refers to LPS-, PMA- or zymosan-stimulated samples that were not treated with test compounds.
A general note: Uptake of a labelled nucleoside into DNA is a usual measure of proliferation.

For a further data set, the system named is A549. Kind of data set: Cytotoxicity assay (MTT), A549 cell line. Particulars: 24 h. It counts as cell-based. In short, it runs like this: as §1
The subject of data set [3] is TNF-α. Kind of data set: Inhibition of TNF-α production by stimulated human peripheral blood leukocytes in vitro. It is filed as cell-based. The note with it: Homo sapiens, Leukocyte, read-out: Percentage of inhibition of TNF-α production. In short, it runs like this:
(§2)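 Cytokines in supernatants measured by sandwich ELISA after overnight stimulation (2 μg/mL LPS, 1 μg/mL PMA or 120 μg/mL zymosan) of healthy-donor leukocytes pretreated 2 h with 10 or 50 μM compound. Percent inhibition calculated relative to stimulated cells lacking compound.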

A further data set relates to IL-8. The data set is described as follows: Inhibition of IL-8 production by stimulated human peripheral blood leukocytes in vitro. It is filed as cell-based. Particulars: Homo sapiens, Leukocyte, read-out: Percentage of inhibition of IL-8 production. The method, boiled down:
as §2

The next data set concerns IL-6. The data set is described as follows: Inhibition of IL-6 production by stimulated human peripheral blood leukocytes in vitro. It is filed as cell-based. The note with it: Homo sapiens, Leukocyte, read-out: Percentage of inhibition of IL-6 production. The method, boiled down: as §2
The test system of data set [4] is granulocytes. It is filed as in vitro ADME. The note with it: human, 180 min, 10 μM. How it is done: (§3) Granulocytes were obtained from heparinized whole blood using density gradiant centrifugation. Erythrocytes were sedimented on 3% dextran T-500 (Amersham Pharmacia Biotech AB, Uppsala, Sweden). Leukocytes were centrifuged on Ficoll (Amersham Pharmacia Biotech AB, Uppsala, Sweden) for 35 min at 600 g at 20° C. The pellet of granulocytes was cleared from remaining erythrocytes by a brief hypotonic lysis.
7.5×10^6 granulocytes, isolated as described above, were suspended in 3 mL of RPMI 1640 (Institute of Immunology, Croatia) containing 10 μM of tested macrolide. Samples were incubated at 37° C. for 180 min. Following incubation, the samples were centrifuged through the layer of Poly(dimethylsiloxane-co-diphenylsiloxane), dihydroxy terminated-silicone oil (Aldrich Chemical Company, Milwaukee, USA). The pellet was resuspended in 0.5% Triton X-100 (Sigma, St. Louis, USA) in deionized water (MilliQ, Millipore Corporation, Bedford, USA). The suspension was sonicated, proteins were precipitated with acetonitrile, and the concentration of macrolide in the supernatants was determined by liquid chromatography-mass spectrometry (LC-MS).
Intracellular concentrations of the test compounds were calculated from the mean cell number recovered after centrifuging through silicone oil. According to the literature, about 1 million neutrophils is considered to have a volume of 0.24 μL (Vazifeh et al., Antimicrob Agents Chemo. 1997; 41: 2099-2107). To estimate the extent of macrolide accumulation, the intracellular to extracellular concentration ratio (I/E) was calculated, where E (due to a large volume of incubation medium) was taken as constant (10 μM). Results are expressed relative to azithromycin according to the following equation: % of azithromycin uptake =(I/E of a substance/I/E of azithromycin)×100. I/E values obtained for azithromycin were 164±10.

The next data set has as its system IL-1α. The data set is described as follows: Inhibition of IL-1 production by stimulated human peripheral blood leukocytes in vitro. It counts as cell-based. The note with it: Homo sapiens, Leukocyte, read-out: Percentage of inhibition of IL-1α production.
Data set [5] concerns granulocytes. Kind of data set: Inhibition of degranulation of granulocytes (free neutrophil elastase activity). It counts as cell-based, human. The note with it: Homo sapiens, Neutrophil, compound 50 μM, read-out: Percentage of inhibition of degranulation of granulocytes. How it is done: as §3
1×10^6 granulocytes, isolated as described above, were resuspended in RPMI-1640 medium (Institute of Immunology, Croatia), and were incubated with 10 or 50 μM of test compound together with cytochalasine B (5 μg/mL) for 2 h at 37° C. Degranulation then was induced by the addition of 0.1 μM fMLP (Sigma, USA) or 0.5 μM A23187 (Calbiochem, USA). The activity of free neutrophil elastase was determined with a chromogenic substrate specific for human neutrophil elastase, such as N-(methoxysuccinyl)-L-alanyl-L-alanyl-L-prolyl-L-valine 4-nitroanilide (Sigma Chemical Company, St Louis, Mo., USA). Elastase activity, as a marker of primary granules, was assessed in supernatant using a spectrophotometer at an absorbance of 405 nm.
Results are expressed as the percent of inhibition of degranulation in unstimulated cells, and in stimulated cells treated with fMLP or A23187.

Where two headings read alike, the source gives them in different places.

Consider `CC[C@H]1OC(=O)[C@H](C)[C@@H](O[C@H]2C[C@@](C)(OC)[C@@H](OC(=O)CCN3CCN(CCCN(CC)CC)CC3)[C@H](C)O2)[C@H](C)[C@@H](O[C@@H]2O[C@H](C)C[C@H](N(C)C)[C@H]2O)[C@](C)(OC)C[C@@H](C)C(=O)N[C@H](C)[C@@H](O)[C@]1(C)O` [Example 31], for which the inhibition in vivo at 10 mg/kg in the data set on TNF-α [1] is 92%. Further, the “Percentage of inhibition of cell growth” value in the data set with Hep G2 (12.5 μM), in the data set with Hep G2 (50 μM), in the data set with A549 (12.5 μM) and with A549 (50 μM) was 0% in each case. Moreover, the inhibition at 10 µM is 23% in [2] (PHA) and 24% in data set [2] (PMA + iono.). Further, the inhibition at 50 µM in data set [2] (PHA) came out at 99%; in data set [2] (PMA + iono.) it was 91%.
For `CC[C@H]1OC(=O)[C@H](C)[C@@H](O[C@H]2C[C@@](C)(OC)[C@@H](OCCCN)[C@H](C)O2)[C@H](C)[C@@H](O[C@@H]2O[C@H](C)C[C@H](N(C)C)[C@H]2O)[C@](C)(O)C[C@@H](C)CN(C)[C@H](C)[C@H]2OC(=O)O[C@@]21C` [Example 51C, 11,12-Carbonate-11,12-dideoxy-4″-O-(3-aminopropyl)-azithromycin], the inhibition at 10 µM with TNF-α [3] (LPS-stimulated PBL) came to 5%; in the data set on TNF-α [3] (PMA-stimulated PBL), 18%; in the data set with TNF-α [3] (zymosan-stimulated PBL), 38%; in the data set on IL-8 (LPS-stimulated PBL), 0%; with IL-8 (PMA-stimulated PBL), 12%; with IL-8 (zymosan-stimulated PBL), 26%. Further, the inhibition at 10 µM with IL-6 (LPS-stimulated PBL) is 4%; with IL-6 (PMA-stimulated PBL), 27%; with IL-6 (zymosan-stimulated PBL), 42%; in the data set on IL-1α (LPS-stimulated PBL), 2%; in the data set with IL-1α (PMA-stimulated PBL) it was 0%; with IL-1α (zymosan-stimulated PBL), 62%. In addition, the inhibition at 50 µM was 0% in the data set on TNF-α [3] (LPS-stimulated PBL); 4% with TNF-α [3] (PMA-stimulated PBL); 0% with TNF-α [3] (zymosan-stimulated PBL); 0% with IL-8 (LPS-stimulated PBL); 0% in the data set on IL-8 (PMA-stimulated PBL); 0% with IL-8 (zymosan-stimulated PBL). The inhibition at 50 µM in the data set with IL-6 (LPS-stimulated PBL) is 0%; in the data set on IL-6 (PMA-stimulated PBL) it was 6%; in the data set with IL-6 (zymosan-stimulated PBL) it was 0%; in the data set with IL-1α (LPS-stimulated PBL), 0%; with IL-1α (PMA-stimulated PBL), 0%; in the data set with IL-1α (zymosan-stimulated PBL) it was 0%. The “Uptake (% azithromycin)” value in the data set with granulocytes [4] amounted to 122 % azithromycin. The “Percentage of inhibition of cell growth” value came to 15% in the data set with Hep G2 (12.5 μM), 7% with Hep G2 (50 μM), 0% with A549 (12.5 μM) and 0% with A549 (50 μM).
In the case of `CC[C@H]1OC(=O)[C@H](C)[C@@H](O[C@H]2C[C@@](C)(OC)[C@@H](O)[C@H](C)O2)[C@H](C)[C@@H](O[C@@H]2O[C@H](C)C[C@H](N(C)C)[C@H]2O)[C@](C)(O)C[C@@H](C)C(=O)[C@H](C)[C@@H](O)[C@]1(C)O` [erythromycin, reference compound], the inhibition at 50 µM was 0% with granulocytes [5] (A23187 0.5 μM) and 23% in the data set with granulocytes [5] (fMLP 0.1 μM).
